Measured values as given in patent publication US20070027218A1, “Pharmaceutical compositions comprising higher primary alcohols and ezetimibe and process of preparation thereof” (PANACEA BIOTEC LTD., priority 2004, published 2007).

Test system: Casein-Starch-Induced Hypercholesterolemia in Rabbits
Test: Casein-starch-induced hypercholesterolemia in rabbits (serum lipid profile)
Assay type: in vivo
Conditions: for LDL-C level / serum total cholesterol level: mean ± S.E.M., in mg/dL (unit assumed)
Description: The observed unexpected synergistic lipid lowering effect of combination of Extract-A as described herein and ezetimibe is evidenced by the test conducted in rabbits. Rabbits of either sex were procured from Central Animal House facility; Panacea Biotec Ltd., India. Animals weighing […] at the time of testing were used throughout. All animals were dosed sequentially by the oral route with Extract-A and/or ezetimibe suspended in 0.5% of carboxymethyl cellulose (CMC). A dosing volume of 2 ml/kg was used for each sequential suspension.
The fasting serum lipid profile (TC, TGs, LDL-C, HDL-C) was estimated before initiation of the experiment. […] Hypercholesterolemia was induced by feeding rabbits with wheat casein-starch diet (g/kg) containing wheat flour 333, cellulose 300, casein 270, water 20, maize oil 10, and mineral mixture (Kroon et al., 1982) for 8 weeks. Feed consumption was restricted to 100 g/day per animal. The cholesterol level was estimated every 15 days. After 60 days animals with total cholesterol level>150 mg/dl were randomized to treatment (n=6/group). Thereafter, various doses of Extract-A and/or ezetimibe were administered for another 60 days during which animals were fed with casein-starch diet. Blood samples were collected from fasted rabbits and analyzed for any alteration in serum lipid profile after 60 days of test compound(s) administration.
All the data are expressed as mean±S.E.M. (Standard Error of Mean). Student t-test was used to compare the lipid parameters between animals fed with standard and hypercholesterolemic diet. The difference between various drug treated groups was analyzed by ANOVA followed by Dunnett's test. A value of P<0.05 was considered as statistically significant.

[1] = Extract-A 100 and 200 mg/kg p.o., ezetimibe 5 and 10 mg/kg p.o., alone or in combination, vs hypercholesterolemic control rabbits
[2] = ezetimibe 5 mg/kg p.o., day 0 (before treatment)
[3] = ezetimibe 5 mg/kg p.o., day 15 (before treatment)
[4] = ezetimibe 5 mg/kg p.o., day 30 (before treatment)
[5] = ezetimibe 5 mg/kg p.o., day 60 (start of treatment)
[6] = ezetimibe 5 mg/kg p.o., day 75 (treatment from day 60)
[7] = ezetimibe 5 mg/kg p.o., day 90 (treatment from day 60)
[8] = ezetimibe 5 mg/kg p.o., day 105 (treatment from day 60)
[9] = ezetimibe 5 mg/kg p.o., day 120 (treatment from day 60)
[10] = ezetimibe 10 mg/kg p.o., day 0 (before treatment)
[11] = ezetimibe 10 mg/kg p.o., day 15 (before treatment)
[12] = ezetimibe 10 mg/kg p.o., day 30 (before treatment)
[13] = ezetimibe 10 mg/kg p.o., day 60 (start of treatment)
[14] = ezetimibe 10 mg/kg p.o., day 75 (treatment from day 60)
[15] = ezetimibe 10 mg/kg p.o., day 90 (treatment from day 60)
[16] = ezetimibe 10 mg/kg p.o., day 105 (treatment from day 60)
[17] = ezetimibe 10 mg/kg p.o., day 120 (treatment from day 60)

O=C1[C@H](CC[C@H](O)c2ccc(F)cc2)[C@@H](c2ccc(O)cc2)N1c1ccc(F)cc1 [Ez, ezetimibe]
LDL-C levels (result in words) [1]: reversed | TC levels (result in words) [1]: reversed | LDL-C level [2]: 22.40 ± 8.81 | serum total cholesterol level [2]: 52.50 ± 3.59 | LDL-C level [3]: 76.13 ± 3.11 | serum total cholesterol level [3]: 103.50 ± 2.23 | LDL-C level [4]: 131.53 ± 6.89 | serum total cholesterol level [4]: 169.83 ± 6.16 | LDL-C level [5]: 174.3 ± 8.02 | serum total cholesterol level [5]: 219.83 ± 7.5 | LDL-C level [6]: 194.07 ± 4.29 | serum total cholesterol level [6]: 236.50 ± 3.47 | LDL-C level [7]: 179.47 ± 3.74 | serum total cholesterol level [7]: 222.83 ± 2.77 | LDL-C level [8]: 156.47 ± 12.92 | serum total cholesterol level [8]: 201.00 ± 12.6 | LDL-C level [9]: 129.17 ± 9.02 | serum total cholesterol level [9]: 181.50 ± 8.55 | LDL-C level [10]: 23.70 ± 7.98 | serum total cholesterol level [10]: 46.50 ± 2.2 | LDL-C level [11]: 72.70 ± 3.92 | serum total cholesterol level [11]: 106.83 ± 3.38 | LDL-C level [12]: 125.07 ± 10.94 | serum total cholesterol level [12]: 162.50 ± 11.54 | LDL-C level [13]: 197.03 ± 13.55 | serum total cholesterol level [13]: 234.50 ± 14.24 | LDL-C level [14]: 179.83 ± 9.83 | serum total cholesterol level [14]: 220.33 ± 8.73 | LDL-C level [15]: 152.80 ± 6.17 | serum total cholesterol level [15]: 197.66 ± 5.42 | LDL-C level [16]: 126.60 ± 6.85 | serum total cholesterol level [16]: 172.16 ± 6.58 | LDL-C level [17]: 124.63 ± 6.55 | serum total cholesterol level [17]: 171.50 ± 4.7
